Tests used:
[1] = target: human vasopressin V1a receptor (Homo sapiens, UniProt P37288); experiment: Vasopressin V1a receptor binding assay; settings: selectivity for V1b over V1a, quotient of Ki values
[2] = Determination of the microsomal half-life / microsomal clearance (human); format: in vitro ADME; settings: pH 7.4; human liver microsomes, 0.5 μM test substance, 0.25 mg microsomal protein/ml; read-out: Human Mikrosomal Clearance
Procedure: The metabolic stability of a compound can be determined, for example, by incubating a solution of this compound with liver microsomes from particular species (for example rat, dog or human) and determining the half-life of the compound under these conditions (RS Obach, Curr Opin Drug Discov Devel. 2001, 4, 36-44). It is possible to conclude from an observed larger half-life that the metabolic stability of the compound is improved. The stability in the presence of human liver microsomes is of particular interest since it makes it possible to predict the metabolic degradation of the compound in the human liver. Compounds with increased metabolic stability (determined in the liver microsome test) are therefore probably also degraded more slowly in the liver. The slower metabolic degradation in the liver can lead to higher and/or longer-lasting concentrations (effective levels) of the compound in the body, so that the elimination half-life of the compounds according to the invention is increased. Increased and/or longer-lasting effective levels may lead to a better efficacy of the compound in the treatment or prophylaxis of various vasopressin-dependent diseases. An improved metabolic stability may additionally lead to an increased bioavailability after oral administration, because the compound is subjected, after being absorbed in the intestine, to less metabolic degradation in the liver (so-called first pass effect). An increased oral bioavailability may, because the concentration (effective level) of the compound is increased, lead to a better efficacy of the compound after oral administration.
Determination of the Microsomal Half-Life:
The metabolic stability of the compounds of the invention was determined in the following assay.
The test substances are incubated in a concentration of 0.5 μM as follows:
0.5 μM test substance is preincubated together with liver microsomes of various species (rat, human or other species) (0.25 mg of microsomal protein/ml) in 0.05M potassium phosphate buffer pH 7.4 in microtitre plates at 37° C. for 5 min. The reaction is started by adding NADPH (1 mg/ml). 50 μl aliquots are taken after 0, 5, 10, 15, 20 and 30 min, and the reaction is stopped immediately with the same volume of acetonitrile and cooled down. The samples are frozen until analyzed. Using MSMS, the remaining concentration of undegraded test substance is determined. From the […] of the test substance signal/time unit curve, the half-life (T½) is determined, where the half-life of the test substance can be calculated, assuming first order kinetics, from the decrease in the concentration of the compound with time. The microsomal clearance (mCl) is calculated as mCl=In2/T½/(content of microsomal protein in mg/ml)×1000 [ml/min/mg] (modified according to the literature references: Di, The Society for Biomoleculaur Screening, 2003, 453-462; Obach, DMD, 1999 vol 27. N 11, 1350-1359).

[3] = target: T1, recombinant human oxytocin receptors (Homo sapiens, UniProt P30559); experiment: Oxytocin receptor binding assay; settings: selectivity for V1b over oxytocin receptor, quotient of Ki values
T1 construct: expressed in transfected cells; host or cells: HEK-293, transient expression; lysed and homogenized cells
T1 sequence (P30559 1-389): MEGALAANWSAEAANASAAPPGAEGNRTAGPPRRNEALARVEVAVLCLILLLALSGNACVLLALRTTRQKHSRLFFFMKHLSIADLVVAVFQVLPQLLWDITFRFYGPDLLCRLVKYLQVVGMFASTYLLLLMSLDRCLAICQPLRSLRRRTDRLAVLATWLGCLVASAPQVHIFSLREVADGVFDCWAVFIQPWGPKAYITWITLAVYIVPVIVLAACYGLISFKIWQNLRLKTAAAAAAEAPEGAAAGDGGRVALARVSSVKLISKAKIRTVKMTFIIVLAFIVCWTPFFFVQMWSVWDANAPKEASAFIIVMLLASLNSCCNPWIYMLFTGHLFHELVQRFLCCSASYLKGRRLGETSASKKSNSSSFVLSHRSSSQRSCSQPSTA
Procedure: Oxytocin Receptor Binding Assay
Confluent HEK-293 cells with transiently expressing recombinant human oxytocin receptors were centrifuged at 750×g and at room temperature for 5 minutes. The residue was taken up in ice-cold lysis buffer (50 mM Tris-HCl, 10% glycerol, pH 7.4 and Roche Complete Protease Inhibitor) and subjected to an osmotic shock at 4° C. for 20 minutes. The lyzed cells were then centrifuged at 750×g and at 4° C. for 20 minutes, the residue was taken up in incubation buffer, and aliquots of 10^7 cells/ml were prepared. The aliquots were frozen at −80° C. until used.
On the day of the experiment, the cells were thawed, diluted with incubation buffer and homogenized using a Multipette Combitip (Eppendorf, Hamburg). […] The nonspecific binding was determined with 10^−6 M oxytocin (Bachem AG, H2510). Determinations in triplicate were set up. Bound and free radioligand were separated by filtration under vacuum with Whatman GF/B glass fibre filters using a Skatron cell harvester 7000. The bound radioactivity was determined by liquid scintillation measurement in a Tricarb beta counter, model 2000 or 2200CA (Packard).

[4] = target: T2, human vasopressin V1b receptor (Homo sapiens, UniProt P47901); experiment: Vasopressin V1b receptor binding assay; settings: displacement of 3H-AVP, membranes of CHO-K1 cells with human V1b receptor
T2 construct: expressed in transfected cells; host or cells: CHO-K1 (cell line hV1b-3H2_CHO), membrane preparation
T2 sequence (P47901 1-424): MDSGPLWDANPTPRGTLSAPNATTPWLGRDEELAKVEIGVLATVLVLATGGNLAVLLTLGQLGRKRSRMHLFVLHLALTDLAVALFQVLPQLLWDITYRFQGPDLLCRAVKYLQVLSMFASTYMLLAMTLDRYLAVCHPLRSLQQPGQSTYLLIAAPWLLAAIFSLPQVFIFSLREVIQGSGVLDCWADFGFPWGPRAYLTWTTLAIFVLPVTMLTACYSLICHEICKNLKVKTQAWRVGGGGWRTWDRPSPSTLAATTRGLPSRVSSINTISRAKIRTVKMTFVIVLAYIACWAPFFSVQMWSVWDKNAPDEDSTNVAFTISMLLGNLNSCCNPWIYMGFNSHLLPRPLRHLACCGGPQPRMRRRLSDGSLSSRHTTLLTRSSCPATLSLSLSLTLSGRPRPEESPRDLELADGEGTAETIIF
Procedure: Methods for Determining the Biological Activity Vasopressin V1b Receptor Binding Assay: Substances:
This series of DMSO predilutions was diluted 1:10 with assay buffer. The substance concentration was again diluted 1:5 in the assay mixture (2% DMSO in the mixture).
All determinations were carried out as triplicate determinations.

Chain of human vasopressin V1a receptor (P37288 whole entry): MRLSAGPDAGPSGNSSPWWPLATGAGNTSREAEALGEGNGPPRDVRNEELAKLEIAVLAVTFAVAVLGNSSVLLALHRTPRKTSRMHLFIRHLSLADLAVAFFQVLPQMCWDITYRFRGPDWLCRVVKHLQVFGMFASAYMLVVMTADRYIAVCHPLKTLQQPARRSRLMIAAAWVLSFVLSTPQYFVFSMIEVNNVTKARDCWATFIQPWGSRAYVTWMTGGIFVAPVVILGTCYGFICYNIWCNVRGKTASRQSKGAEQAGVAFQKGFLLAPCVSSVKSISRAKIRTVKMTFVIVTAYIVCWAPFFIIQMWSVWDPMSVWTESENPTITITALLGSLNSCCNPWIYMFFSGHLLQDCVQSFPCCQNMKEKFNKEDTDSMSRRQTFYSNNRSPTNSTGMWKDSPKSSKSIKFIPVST

Structure (SMILES) | Ki(h-V1a)/Ki(h-V1b) [1] | microsomal CLint at 0.5 μM [2] [µL/min/mg] | Ki(h-OT)/Ki(h-V1b) [3] | Ki [4] [nM]
CCOc1ncccc1C1(NC(=O)N2CCN(C3CCN(C)CC3)CC2)C(=O)N(S(=O)(=O)c2ccc(OC)cc2OC)c2ccc(C#N)cc21 (racemic) [Example 1, N-[5-Cyano-1-[(2,4-dimethoxyphenyl)sulphonyl]-3-(2-ethoxypyridin-3-yl)-2-oxo-2,3-dihydro-1H-indol-3-yl]-4-(1-methylpiperidin-4-yl)piperazine-1-carboxamide] | +++ (>100) | < 60 | +++ (>50) | < 10
CCOc1ncccc1C1(NC(=O)N2CCN(C3CCN(C)CC3)CC2)C(=O)N(S(=O)(=O)c2ccccc2)c2ccc(C#N)cc21 (racemic) [Example 4, N-[5-Cyano-3-(2-ethoxypyridin-3-yl)-2-oxo-1-(phenylsulphonyl)-2,3-dihydro-1H-indol-3-yl]-4-(1-methylpiperidin-4-yl)piperazine-1-carboxamide] | ++ (>50-100) | < 60 | ++ (>25-50) | 10 to 50
CCOc1ncccc1C1(NC(=O)N2CCN(C3CCNCC3)CC2)C(=O)N(S(=O)(=O)c2ccc(OC)cc2OC)c2ccc(C#N)cc21.O=C(O)C(F)(F)F.O=C(O)C(F)(F)F (racemic) [Example 25, N-[5-Cyano-1-[(2,4-dimethoxyphenyl)sulphonyl]-3-(2-ethoxypyridin-3-yl)-2-oxo-2,3-dihydro-1H-indol-3-yl]-4-piperidin-4-ylpiperazine-1-carboxamide bis(trifluoroacetate)] | +++ (>100) | < 60 | ++ (>25-50) | < 10
CCOc1ncccc1C1(NC(=O)N2CCC(N3CCN(C)CC3)CC2)C(=O)N(S(=O)(=O)c2ccc(OC)cc2OC)c2ccc(C#N)cc21 (racemic) [Example 31, N-[5-Cyano-1-[(2,4-dimethoxyphenyl)sulphonyl]-3-(2-ethoxypyridin-3-yl)-2-oxo-2,3-dihydro-1H-indol-3-yl]-4-(4-methylpiperazin-1-yl)piperidine-1-carboxamide] | +++ (>100) | 60 to 120 | +++ (>50) | < 10
CCOc1ncccc1C1(NC(=O)N2CCC(N3CCN(C)CC3)CC2)C(=O)N(S(=O)(=O)c2ccc(OC)cc2)c2ccc(C#N)cc21.O=C(O)C(F)(F)F (racemic) [Example 35, N-[5-Cyano-3-(2-ethoxypyridin-3-yl)-1-[(4-methoxyphenyl)sulphonyl]-2-oxo-2,3-dihydro-1H-indol-3-yl]-4-(4-methylpiperazin-1-yl)piperidine-1-carboxamide trifluoroacetate] | + (15-50) | 60 to 120 | ++ (>25-50) | < 10
CCOc1ncccc1C1(NC(=O)N2CCC(N3CCN(CC)CC3)CC2)C(=O)N(S(=O)(=O)c2ccc(OC)cc2OC)c2ccc(C#N)cc21 (racemic) [Example 37, N-[5-Cyano-1-[(2,4-dimethoxyphenyl)sulphonyl]-3-(2-ethoxypyridin-3-yl)-2-oxo-2,3-dihydro-1H-indol-3-yl]-4-(4-ethylpiperazin-1-yl)piperidine-1-carboxamide] | +++ (>100) | 60 to 120 | +++ (>50) | < 10
CCOc1ncccc1C1(NC(=O)N2CCC(N3CCN(CC)CC3)CC2)C(=O)N(S(=O)(=O)c2ccccc2)c2ccc(C#N)cc21 (racemic) [Example 40, N-[5-Cyano-3-(2-ethoxypyridin-3-yl)-2-oxo-1-(phenylsulphonyl)-2,3-dihydro-1H-indol-3-yl]-4-(4-ethylpiperazin-1-yl)piperidine-1-carboxamide] | ++ (>50-100) | 60 to 120 | +++ (>50) | < 10
